Laboratory results as given in patent EP0975351B1, “TREATMENT OF MULTIPLE SCLEROSIS THROUGH INGESTION OF COPOLYMER-1” (YEDA RESEARCH AND DEVELOPMENT CO. LTD., priority 1997, dated 1998).

Tests used:
[1] = tested on: EAE; assay: EAE in Rhesus monkeys, enteric-coated versus cracked coating capsules (Example 4); type: in vivo; settings: for protection from the disease: Fig. 10
Experimental: Six monkeys were treated and subsequent analyses performed substantially according to the protocol described for Example 3 hereinabove.
Control placebo-fed animal 18746 was fed with capsules containing glucose. Animal 18586 was fed with 1 mg glatiramer acetate in capsules with cracked […]. Animal 18586 was fed with 1 mg glatiramer acetate in capsules with cracked enteric coating. Animal 18639 was fed with 20 mg glatiramer acetate in capsules with cracked enteric coating. […] Animal 18962 was fed with 20 mg glatiramer acetate in intact enteric coated capsules.
The schedule of feeding, disease induction and follow-up were substantially the same as those of Example 3 described hereinabove.

[2] = tested on: EAE; assay: Suppression of MSCH-induced EAE in mice by oral administration, dose response; type: in vivo, (SJL/JxBALB/c)F1 mice; settings: days -7 to 6 (Figure 5)
Experimental: (§1) Animals were examined daily from day 10 post induction for signs of disease. EAE was scored as follows: 0-no disease, 1-limp tail, 2-hind limb paralysis, 3-paralysis of all four limbs, 4-moribund condition, 5-death.
Induction of EAE - (SJL/xBALB/c)F1 mice were injected in all four footpads with 2mg mouse spinal cord homogenated (MSCH) emulsified in 1:1 ratio in CFA containing 1 mg/ml H37Ra (Difco Lab, Detroit, Mich). Pertussis toxin (250 ng/mouse, Sigma) was twice injected intravenously, once immediately after and again 48 hours later.
(SJL/JxBALB/c)F1 mice were fed 7 times with 0.1, 0.25 or 0.5 mg glatiramer acetate on days -7; -5; -3; 0; 2; 4 and 6 by gastric intubation. EAE was induced on day 0 by the injection of MSCH.

[3] = tested on: EAE; assay: Suppression of EAE in rats by oral administration; type: in vivo, Lewis rats
Experimental: Rats were immunized with 25 µg of GPBP emulsified 1:1 in CFA containing 4 mg/ml. H37Ra. The emulsion at a total volume of 0.1 ml. was injected into the two hindfoot pads.
as §1
Rats were fed with 1 mg GPBP or glatiramer acetate dissolved in PBS by gastric intubation using a sterile feeding tube (Uno Plast, Denmark). Rats were fed 5 times (total dose of 5 mg) before disease induction at intervals of 2-3 days. EAE was induced two days after the last feeding. Control mice and rats were mock fed with PBS.

[4] = tested on: T-cell line derived from spleens of glatiramer acetate fed rats; assay: Cytokine assay of T-cell line from spleens of fed rats (ELISA); type: cell-based; settings: rat line cultured with glatiramer acetate as antigen (Figure 6)
Experimental: Isolation of glatiramer acetate specific T cell lines - Lewis rats were fed 5 times with 1 mg glatiramer acetate and (SJUJ x BALB/c)F, mice 7 times with 250 µg glatiramer acetate, at intervals of 2-3 days. Four to twelve days after the last feeding animals were sacrificed and their spleens removed.
Spleen cells of 3 animals were pooled and incubated (50 x 10^6/plate) with glatiramer acetate (500 µg) in medium containing 1 % autologous serum for 4 days. Every 14-21 days cells (4-6 x 10^6/plate) were restimulated by 3 days exposure to copolymer-1 (500 µg) presented on syngeneic irradiated (3000 rad) rat thymocytes (100 x 10^6/plate) or mouse splenocytes (50 x 10^6/plate). Stimulation was followed by propagation in 10% supernatant of Con A activated normal mouse spleen cells as T cell growth factor (TCGF).
Cytokine Assay - T cells of rat line (0.5 x 10^6/ml) were incubated with irradiated thymocytes (10 x 10^6) with or without the indicated antigen (50µg glatiramer acetate; 5µg Con A). Cells were cultured for 24 hours in RPMI 1640 supplemented with 10% FCS for IL-2, TNFα, IL-4 and IL-10-measurements and in serum free medium - DCCM-1 (Biological Industries, Kibbutz Beit Haemek, Israel) for 72 hours for TGFβ measurement.
Cytokine levels in supernatants were measured in a quantitative ELISA using pairs of monoclonal antibodies specific for the corresponding cytokines.

[5] = tested on: CSF WBCs; assay: Flow cytometry of cerebral spinal fluid (CSF) cells; type: in vivo, Rhesus Monkeys
Experimental: 3 Rhesus monkeys were treated as follows: One monkey served as control and was fed with placebo capsules (containing 5mg glucose only). The second and third monkeys were fed with glatiramer acetate containing capsules at a dose of 1mg/feeding and 20mg/feeding, respectively. Animals were fed every other day for a total of 10 feedings: 5 times prior to disease induction (immunization on day 0) and then 5 times after immunization.
Disease was induced on day 0 by an intradermal injection of 8mg bovine - MBP and 3 mg H37Ra M. tuberculosis in FCA into the hind footpads, total injected volume between 0.1 and 0.15 ml per footpad. The animals were followed for clinical manifestations of EAE, a variety of serum and CSF immunological markers and spinal cord and cranial MRI's.
The Epics C flow cytometer was used to analyze both peripheral blood lymphocytes (PBL) and cerebral spinal fluid (CSF) collected from each monkey. The red blood cells were lysed and the remaining white blood cells (WBCs) were washed and stained using standard methods with appropriate reagents. Tables 3 and 4 below show the data from staining PBL and CSF WBCs from the three animals in this Example.

[6] = tested on: TGF-beta; assay: Reaction of MBP-bound plasma material with anti-TGF-beta antibody; type: in vivo, Rhesus Monkeys; settings: plasma material bound to MBP
Source text: Recombinant human TGF-beta reacted with the anti-TGF-beta, but not 3C9 antibody. Table 5: Assay for MBP-specific T suppressor Inducer factora

[7] = capsules with cracked enteric coating, 1 mg (animal 18586) and 20 mg (animal 18639)
[8] = animal 18498, 20mg/feeding, day +27

Q: What does the source list for glatiramer acetate?
A: time to death from disease manifestations [1, 7]: 2 to 3 days; protection from the disease [1, 7]: not protected from the disease; protection from the disease ([1]; intact enteric coated capsules, 1 mg, 10 mg, 20 mg (animals 18724, 18810, 18962)): fully protected from the disease; signs of EAE ([1]; intact enteric coated capsules, 1 mg, 10 mg, 20 mg, until day 60 when sacrificed): developed no signs of EAE until day 60; suppression of EAE ([2]; mice fed 7 times 0.1 mg): most effective dose; suppression of EAE ([2]; mice fed 7 times 0.25 mg): less effective; suppression of EAE ([2]; mice fed 7 times 0.5 mg): completely inactive; Mean Onset ([3]; Lewis rats fed 1 mg 5 times before EAE induction, PBS control 11.9): 12.6 days; Mean Maximal Score±SD ([3]; Lewis rats fed 1 mg 5 times before EAE induction, score 0-5, PBS control 1.8±0.5): 0.78±0.45; inhibition of incidence of EAE ([3]; compared to PBS fed rats): 54%; inhibition of severity of EAE ([3]; compared to PBS fed rats): 57%; cytokine secretion response of T-cell line [4]: secreted IL-2, some IL-10 and TGFβ but not TNFα or IL-4; Cells µl ([5]; animal 18497, 1mg/feeding, day 0): few cells; Cells µl ([5]; animal 18498, 20mg/feeding, day 0): too few cells; CD4+ [5, 8]: 47; CD4+ CD45RA+ [5, 8]: 8; Cells µl [5, 8]: 29.7; Cells µl ([5]; animal 18498, 20mg/feeding, day +34): too few cells; anti-TGF-beta ([6]; animal 18497, 1mg/feeding then 20mg capsules after day 33, day +41): 0.85 OD405nm; anti-TGF-beta ([6]; animal 18497, 1mg/feeding, day +6): none; anti-TGF-beta ([6]; animal 18497, 1mg/feeding, day +13): 0.71 OD405nm; anti-TGF-beta ([6]; animal 18497, 1mg/feeding, day +27): 0.65 OD405nm; anti-TGF-beta ([6]; animal 18498, 20mg/feeding, day +6): none; anti-TGF-beta ([6]; animal 18498, 20mg/feeding, day +13): 0.35 OD405nm; anti-TGF-beta [6, 8]: 0.47 OD405nm; anti-TGF-beta ([6]; animal 18498, 20mg/feeding, day +41): 0.45 OD405nm
